# Laboratory results published in patent US7923984B2, “Universal, wireless, nano-optical voltmeters” (The Regents of the University Of Michigan, priority 2007, dated 2011).
# Where a name gives a salt, the structure may show the parent alone.
# Assays:
# [1] = test system: mitochondrial membrane E field in DITNC astrocytes; assay: Sequential CCCP depolarizations in astrocytes monitored by NOVs; type: cell-based; settings: 5 μM CCCP, second dose at 46 minutes
# Method: Repeat depolarizations were performed as follows. Astrocytes were prepared as above, but the cell chamber only contained 500 μL of HBSS with HEPES. 500 μL CCCP (5 μM final concentration in chamber) was added and images were collected every minute for the first 10 minutes after the addition of CCCP and every 5 minutes thereafter until the 45 minute time point. Then 500 μL of the CCCP solution was added at the 46 minute time point, and the images taken every minute until the 55 minute time point and every five minutes until the 90 minute time point.
# (§1) Image analysis was performed as follows. Images were transferred to the MetaMorph image analysis package and regions of interest chosen consistent with TMRM-induced mitochondrial fluorescence, or the autofluorescent mitochondria of the astrocytes. In some cases, the images were expanded and regions of interest (ROI) were also chosen from the surrounding cytosol. The average pixel intensity ratio of the 600 nm image versus the 700 nm image was then calculated. For the TMRM channel, the average pixel intensity was recorded.
# Sequential depolarizations were performed as follows. Astrocytes with autofluorescent mitochondria (to eliminate the need for TMRM) were incubated with NOVs, transferred to a confocal microscope, and the mitochondrial membrane depolarized with the use of CCCP. […]
# [2] = test system: mitochondrial membrane E field in DITNC astrocytes; assay: Repeated CCCP depolarizations in astrocytes measured by E-PEBBLEs; type: cell-based, rat; settings: 3.1 μM at 3 min 50 s, second dose at 33 min 50 s; 600:700 nm ratio
# Method: Repeated depolarizations of mitochondrial membrane potentials were performed as follows. Astrocytes were prepared as described above. Z series of Images were taken every minute for 15 minutes and every 5 minutes thereafter for 30 minutes. At time 3 minutes 50 sec, 1 μL of a CCCP solution (3.1 mM dissolved in DMSO and HBSS with HEPES; concentration in chamber was 3.1 μM) was added to the chamber. Starting at the 30 minute time point, images were again taken every minute until the 45 minute time point and every five minutes thereafter until the 60 minute time point. At time 33 minutes 50 seconds, a second dose of CCCP (3.1 mM) was added. The final concentration in the cell chamber for CCCP was 6.1 μM.
# (§2) Cellular image analysis was performed as follows. Images of specific focal planes were transferred to the MetaMorph image analysis package and regions of interest (ROI) chosen consistent with TMRM-induced mitochondrial fluorescence, or the autofluorescent mitochondria of the astrocytes. In some cases, the images were expanded and regions of interest were also chosen from the surrounding cytosol. The average pixel intensity was determined for each ROI, and the emission ratio of the 525:700 nm images was then calculated. In some cases, the emission ratio of 600:700 nm was calculated. […] For the TMRM channel, the average pixel intensity was recorded. […]
# [3] = test system: mitochondrial membrane E field in DITNC astrocytes; assay: CCCP challenge of mitochondrial membrane E field in DITNC astrocytes measured by E-PEBBLEs; type: cell-based, rat; settings: CCCP 12.2 μM added at 3 min 40 s
# Method: Mitochondrial membrane and cytosol potentials were measured as follows. Immortalized rat (DITNC) astrocytes with autoflourescent mitochondria (American Type Culture Collection, Manassas, Va.) were plated on to glass cover slips at a concentration of ˜2×10^5 cells/mL. Cells were incubated in Dulbecco's Modified Eagle Medium (DMEM) supplemented with 10% fetal bovine serum and 1% penicillin/streptomycin (Invitrogen, Carlsbad, Calif.) overnight. The media was then removed and replaced with fresh media. […] The cover slip was rinsed with Hank's Balanced Salt Solution (HBSS) (Invitrogen, Carlsbad, Calif.) containing 10 mmol N-2-Hydroxyethylpiperazine-N′-2-Ethane Sulfonic Acid (HEPES) and placed in a stainless steel cell chamber with 1 mL HBSS containing 10 mmol HEPES. In some cases, tetramethylrhodamine methyl ester (TMRM) (Molecular Probes, Eugene, Oreg.) dissolved in dimethyl sulfoxide (DMSO) was added to the chamber for a total concentration of ˜50 nM to confirm mitochondrial fluorescence.
# The entire chamber was mounted on a confocal microscope at room temperature (Olympus IX70 connected to a Life Science Resources UltraView equipped with an Ar—Kr laser and a Lambda 10-2 Sutter wheel from Sutter Instrument Co. Novato, Calif.) and examined with a 60× objective connected to a Z series motor. Four Z stacks were taken 1 minute apart, starting with time zero. […] Slices analyzed were ˜3-4 microns into the cell as measured from the bottom of the cell. […]
# as §2, with “In some cases, the images were expanded and regions of interest were also chosen from the surrounding cytosol.” left out
# [4] = test system: astrocytes, mitochondrial and microfilament regions; assay: CCCP challenge of mitochondrial and microfilament regions in astrocytes; type: cell-based; settings: CCCP at 3 min 45 sec
# Method: Microfilaments in astrocytes. Astrocytes were co-incubated with E-PEBBLEs and alexafluor-phalloidin (a microfilament stain). The fluorescence arising from the mitochondria, E-PEBBLEs, and microfilaments were able to be resolved though use of different fluorescent emission filters.
# The cells were challenged with CCCP at 3 min 45 sec using normal experimental parameters, as described in Example 7.
# [5] = test system: mitochondrial membrane E field in C6 glioma cells; assay: CCCP depolarization of mitochondria in C6 gliomas monitored by NOV; type: cell-based, Mouse; settings: CCCP total concentration 10 μM
# Method: Depolarization, comparison with TMRM, and cytosol measurements were performed as follows. Mouse C6 glioma cells were plated on to glass cover slips at a concentration of approximately 2.5×10^5 cells/mL. Cells were incubated in DMEM supplemented with 10% FBS and 1% p/s overnight. The media was then removed and replaced with fresh media. NOVs were added to the suspension (125-250 μg particles) and the cells incubated for 30 minutes. The cover slip was rinsed with HBSS containing 10 mmol N-2-Hydroxyethylpiperazine-N′-2-Ethane Sulfonic Acid (HEPES) and placed in a stainless steel cell chamber with 1 mL HBSS containing 10 mmol HEPES. […]
# as §1, with “In some cases, the images were expanded and regions of interest (ROI) were also chosen from the surrounding cytosol.” left out
# CCCP depolarization was performed as follows. […] A region of interest was first determined in Metamorph by the punctuated bright areas that indicated mitochondria through TMRM localization. The emission ratio was then determined at the measurement time points. […]
# C6 glioma cells = assay: Localization, uptake and cytotoxicity of particles in C6 glioma cells; type: cell-based, Rat; settings: same final dye concentration as delivered in the NOV
# Method: Mouse C6 glioma cells were plated on to glass cover slips at a concentration of approximately 2.5×10^5 cells/mL. Cells were incubated in DMEM supplemented with 10% FBS and 1% p/s overnight. The media was then removed and replaced with fresh media. NOVs were added to the suspension (125-250 μg particles) and the cells incubated for 30 minutes. The cover slip was rinsed with HBSS containing 10 mmol N-2-Hydroxyethylpiperazine-N′-2-Ethane Sulfonic Acid (HEPES) and placed in a stainless steel cell chamber with 1 mL HBSS containing 10 mmol HEPES. In some cases TMRM dissolved in dimethyl sulfoxide was added to the chamber for a total concentration of 50 nM and the chamber was allowed to equilibrate for 10 minutes. The entire chamber was mounted on the confocal microscope and examined with a 60× objective connected to a Z series motor. One mL of a CCCP solution (total concentration 10 μM and, in some cases, containing 50 nM TMRM) was added to the cell chamber and a timer started. A series of images (1 to 2 μm in thickness) was taken in the vertical plane 15 seconds after addition of the CCCP solution, and then every minute for the first 10 minutes. Images were taken at 5 minute intervals thereafter until the 30 minute time point. Cells were illuminated at 488 nm and the fluorescent images were collected at 600 nm (50 nm band pass) and 700 nm (50 nm band pass) for the first two channels. […]
# DITNC astrocytes = assay: Uptake, localization and tolerability of E-PEBBLEs in astrocytes; type: cell-based, rat; settings: same final dye concentration as delivered in the E-PEBBLEs
# Excerpt: Cells were illuminated at 488 nm and the fluorescent images were collected at 600 nm (50 nm band pass), 700 nm (50 nm band pass), and 525 nm (50 nm band pass).
# Cell groups that appeared visually robust (i.e., elongate with little or no ruffling or blebbing of the membrane) were used for analysis.
SMILES,change of mitochondrial E field after CCCP [1],change of mitochondrial E field after repeated CCCP doses [2],drop in E field from minute 3 to minute 4 [3],mitochondrial E field at t=4 min after CCCP [3],overall drop in E field from t=0 min to t=30 min [3],response of microfilament regions to CCCP [4],response of mitochondrial regions to CCCP [4],time for mitochondrial E field to approach zero after addition of CCCP [5],fluorescence of cells exposed to free dye in water (uptake) (C6 glioma cells),fluorescence of cells exposed to free dye in an aqueous solution (uptake) (DITNC astrocytes)
"N#CC(C#N)=NNc1cccc(Cl)c1 [CCCP, Carbonyl cyanide 3-chlorophenylhydrazone]",decrease in the E field during the first 10 minutes,"the E field rapidly decreases, followed by a modest repolarization",55%,−1.4×10^6 V/m,55%,spike at the 10-15 minute time point,normal depolarization,approximately 10 minutes,,
"CCCCN(CCCC)c1ccc2cc(C=Cc3cc[n+](CCCS(=O)(=O)[O-])cc3)ccc2c1 [free dye, pyridinium, 4-(2-(6-(dibutylamino)-2-naphthalenyl)ethenyl)-1-(3-sulfopropyl)-, hydroxide, inner salt]",,,,,,,,,did not fluoresce,did not fluoresce
